Assay results as given in paper PMC10387993, “New pyrimidine-N-β-D-glucosides: synthesis, biological evaluation, and molecular docking investigations” (Turkish Journal of Chemistry, 2023).
Converted amounts (≈) assume the structure as drawn.

Key:
[1] = LDH cytotoxic activity assay, MCF7; type: cell-based; details: human, MCF7 cells; for cytotoxicity at 24 h, 25 μg/mL: MCF7, 25 μg/mL; for cytotoxicity at 24 h, 50 μg/mL: MCF7, 50 μg/mL; for cytotoxicity at 24 h, 75 μg/mL: MCF7, 75 μg/mL
Method: (§1) The cell lines were cultured in a cell medium (Dulbecco’s modified eagle’s or RPMI 1640) enriched with 10% (v/v) fetal bovine serum and 2% (v/v) Penicillin-Streptomycin (10,000 U/mL). First, old medium was removed out of the flask when the cells reached approximately 80% confluence. Next, cells were taken from the flasks surface using trypsin-EDTA solution and then subjected to centrifugation. Following, the cell pellet was suspended with fresh media and was inoculated into wells.
(§2) Approximately 5 × 10^3 cells in 100 μL were placed into 96-well plates as triplicates and treated with 25, 50, 75, and 100 μg/mL concentrations of test compounds at 37 °C with 5% CO2 for 24 h. LDH activity was obtained by determining absorbance at 492–630 nm using a microplate reader.

BSA = BSA (Bos taurus, UniProt P02769); assay: BSA binding study, UV-Visible absorption; details: UV-Vis, 25 μM compound, BSA 6.5–800 μM
Sequence of BSA (P02769 25-607): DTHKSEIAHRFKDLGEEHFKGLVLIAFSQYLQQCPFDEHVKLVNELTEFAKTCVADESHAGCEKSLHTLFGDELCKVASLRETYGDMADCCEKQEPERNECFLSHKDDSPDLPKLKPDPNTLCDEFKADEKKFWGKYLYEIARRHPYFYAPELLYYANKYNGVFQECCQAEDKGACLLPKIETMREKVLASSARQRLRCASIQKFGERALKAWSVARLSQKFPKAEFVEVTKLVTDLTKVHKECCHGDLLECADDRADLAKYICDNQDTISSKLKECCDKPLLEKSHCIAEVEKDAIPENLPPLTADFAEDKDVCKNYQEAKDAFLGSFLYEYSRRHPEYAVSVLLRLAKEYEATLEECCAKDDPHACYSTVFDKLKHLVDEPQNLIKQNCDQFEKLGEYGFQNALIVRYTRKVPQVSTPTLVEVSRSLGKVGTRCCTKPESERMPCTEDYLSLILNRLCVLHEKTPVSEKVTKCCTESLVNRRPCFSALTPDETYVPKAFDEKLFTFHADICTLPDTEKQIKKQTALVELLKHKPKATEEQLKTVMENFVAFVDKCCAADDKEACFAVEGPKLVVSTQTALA
Text: The vast majority of anticancer agents used in pharmaceutical chemistry act on functional macromolecules such as DNA and proteins. Given this well-known fact, the relationship between newly developed anticancer drug candidates and macromolecules should be studied in detail. The interaction of molecules with DNA leads to significant changes in the helical structure of DNA, which can be observed by spectrophotometric techniques. […] Also, the red or blue shift in the absorption bands of the compounds can be an indication of the stability of the compound and the DNA structure. The DNA/BSA binding properties of the new chemicals synthesized by our group were determined using a UV-Vis spectrophotometer. The interactions of these compounds with DNA were as follows. In the spectra obtained by UV-Vis studies of the compounds, a single maximum absorption peak was observed and this peak had no clear bathochromic or hypsochromic effect. […]. […] The physical interactions of our newly synthesized compounds with BSA caused the formation of the spectral bands described below. […]. […]. Kb is the binding constant related to the complex to DNA and can be calculated algebraically from the slope of the line drawn between [DNA] / (ɛa-ɛf) and [DNA]. […].
To find the interaction of the compounds with calf thymus DNA and to calculate the binding constants (Kb) UV–Visible absorption spectroscopy technique was used. A 2.5-mg calf thymus DNA was dissolved in 10.0 mL Tris–HCl buffer (20 mM Tris–HCl, 20 mM NaCl, pH 7.0) and stabile during one week in the refrigerator. […]. After dissolving the calf thymus DNA fibers in Tris–HCl buffer, the purity of this solution was checked from the absorbance ratio A260/A280. […]. These compounds were diluted with Tris–HCl buffer to obtain 25 μM concentrations. Test compounds in the solutions were incubated at room temperature for nearly 30 min before the process. The UV-visible spectral studies were performed in mixed solvent system (1/9 DMSO/Tris–HCl buffer) using eight points that the fine structure is observed for these compounds in this system by UV-visible absorption. […]. Absorption spectra were recorded by using 1-cm-path quartz cuvettes at room temperature. To evaluate the interaction of the compounds with BSA, UV–Visible absorption spectroscopy technique was also used. A 2.5 mg BSA was dissolved in 10.0 mL of Tris–HCl buffer (5 mM Tris–HCl, 10 mM NaCl at pH 7.4) and stored in the refrigerator. […]

[2] = LDH cytotoxic activity assay, A549; type: cell-based; details: human, A549 cells; for cytotoxicity at 24 h, 25 μg/mL: A549, 25 μg/mL; for cytotoxicity at 24 h, 50 μg/mL: A549, 50 μg/mL; for cytotoxicity at 24 h, 75 μg/mL: A549, 75 μg/mL; for cytotoxicity at 24 h, 100 μg/mL: A549, 100 μg/mL
Method: as §1, §2

[3] = LDH cytotoxic activity assay, Hep3B; type: cell-based; details: human, Hep3B cells
Method: as §1, §2

[4] = LDH cytotoxic activity assay, FL; type: cell-based; details: human, FL cells (normal cells)
Method: as §1, §2

S. gordonii NCTC 7870 = assay: Microdilution MIC assay; type: cell-based; details: Streptococcus gordonii, NCTC7870; S. gordonii NCTC 7870, 24 h at 35 °C
Summary of the method: (§3)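 Broth microdilution in microwells; plates incubated 24 h at 35 °C. MIC taken as the lowest concentration with no visible growth (turbidity), read by eye.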

S. aureus ATCC 25923 = assay: Microdilution MIC assay; type: cell-based; details: Staphylococcus aureus, ATCC25923, 24 h, S. aureus ATCC 25923, 24 h at 35 °C; read-out: MIC
Summary of the method: as §3

[5] = system: E. faecalis VRE ATCC 19433; assay: Microdilution MIC assay; type: cell-based; details: Enterococcus faecalis; E. faecalis VRE ATCC 19433, 24 h at 35 °C
Summary of the method: as §3

E. faecalis ATCC 29212 = assay: Microdilution MIC assay; type: cell-based; details: Enterococcus faecalis, ATCC29212, 24 h, E. faecalis ATCC 29212, 24 h at 35 °C; read-out: MIC
Summary of the method: as §3

[6] = system: A. actinomycetemcomitans ATCC 33384; assay: Microdilution MIC assay; type: cell-based; details: Aggregatibacter actinomycetemcomitans, ATCC33384; A. actinomycetemcomitans ATCC 33384, 24 h at 35 °C
Summary of the method: as §3

calf thymus DNA (CT-DNA) = assay: DNA binding study, UV-Visible absorption titration; details: UV-Vis titration, 25 μM compound
Text: The vast majority of anticancer agents used in pharmaceutical chemistry act on functional macromolecules such as DNA and proteins. Given this well-known fact, the relationship between newly developed anticancer drug candidates and macromolecules should be studied in detail. The interaction of molecules with DNA leads to significant changes in the helical structure of DNA, which can be observed by spectrophotometric techniques. […] Also, the red or blue shift in the absorption bands of the compounds can be an indication of the stability of the compound and the DNA structure. The DNA/BSA binding properties of the new chemicals synthesized by our group were determined using a UV-Vis spectrophotometer. The interactions of these compounds with DNA were as follows. […] Kb is the binding constant related to the complex to DNA and can be calculated algebraically from the slope of the line drawn between [DNA] / (ɛa-ɛf) and [DNA]. […]
To find the interaction of the compounds with calf thymus DNA and to calculate the binding constants (Kb) UV–Visible absorption spectroscopy technique was used. […] After dissolving the calf thymus DNA fibers in Tris–HCl buffer, the purity of this solution was checked from the absorbance ratio A260/A280. […] Absorption spectra were recorded by using 1-cm-path quartz cuvettes at room temperature. […]

[7] = as the column head prints, head prints FL

Structure (SMILES)	change of absorption on adding increasing amounts of BSA (BSA)	MIC (S. gordonii NCTC 7870) [µg/mL]	MIC (S. aureus ATCC 25923) [µg/mL]	MIC [5] [µg/mL]	MIC (E. faecalis ATCC 29212) [µg/mL]	MIC [6] [µg/mL]	cytotoxicity at 24 h, 25 μg/mL [1] [%]	cytotoxicity at 24 h, 50 μg/mL [1] [%]	cytotoxicity at 24 h, 75 μg/mL [1] [%]	cytotoxicity at 24 h, 25 μg/mL [2] [%]	cytotoxicity at 24 h, 50 μg/mL [2] [%]	cytotoxicity at 24 h, 75 μg/mL [2] [%]	cytotoxicity at 24 h, 100 μg/mL [2] [%]	cytotoxicity at 24 h, 25 μg/mL [3] [%]	cytotoxicity at 24 h, 50 μg/mL [3] [%]	cytotoxicity at 24 h, 75 μg/mL [3] [%]	cytotoxicity at 24 h, 100 μg/mL [3] [%]	cytotoxicity at 24 h, 25 μg/mL ([4]; FL) [%]	cytotoxicity at 24 h, 50 μg/mL ([4]; FL) [%]	cytotoxicity at 24 h, 75 μg/mL ([4]; FL) [%]	also measured
CC(=O)OC[C@H]1O[C@@H](Nc2nc(-c3ccc(C)cc3)cc(-c3ccccn3)n2)[C@H](OC(C)=O)[C@@H](OC(C)=O)[C@@H]1OC(C)=O [Compound 16, 2,3,4,6-tetra-O-acetyl-N-[4-(4-methylphenyl)-6-pyridin-2-ylpyrimidin-2-yl]-β-D-glucopyranosylamine]	hypochromically	> 1000	> 1000	1000 (≈ 1690 µM)		> 1000															
Cc1ccc(-c2cc(-c3ccncc3)nc(N[C@@H]3O[C@H](CO)[C@@H](O)[C@H](O)[C@H]3O)n2)cc1 [Compound 9, N-[4-(4-methylphenyl)-6-pyridin-4-ylpyrimidin-2-yl]-β-D-glucopyranosylamine]	hyperchromic activity	1000 (≈ 2360 µM)	1000 (≈ 2360 µM)	1000 (≈ 2360 µM)	1000 (≈ 2360 µM)	500 (≈ 1180 µM)	11.1	19.2	27.5	27.4	28.5	48.4	63.2	16.5	24.4	41.5	49.4	18.6	30	60.6	cytotoxicity at 24 h, 100 μg/mL ([4]; FL): 71%; cytotoxicity at 24 h, 100 μg/mL [4, 7]: 36.5%
Cc1ccccc1-c1cc(-c2ccccn2)nc(N[C@@H]2O[C@H](CO)[C@@H](O)[C@H](O)[C@H]2O)n1 [Compound 1, N-[4-(2-methylphenyl)-6-pyridin-2-ylpyrimidin-2-yl]-β-D-glucopyranosylamine]		250 (≈ 589 µM)	500 (≈ 1180 µM)	> 1000	1000 (≈ 2360 µM)	500 (≈ 1180 µM)															binding constant (Kb) (calf thymus DNA (CT-DNA)): greater interest in DNA than the anticancer drugs cisplatin and 5FU

Further lines, with some results ahead:

change of absorption on adding increasing amounts of BSA (BSA)	MIC (S. gordonii NCTC 7870) [µg/mL]	MIC (S. aureus ATCC 25923) [µg/mL]	MIC [5] [µg/mL]	MIC (E. faecalis ATCC 29212) [µg/mL]	MIC [6] [µg/mL]	Structure (SMILES)	cytotoxicity at 24 h, 25 μg/mL [1] [%]	cytotoxicity at 24 h, 50 μg/mL [1] [%]	cytotoxicity at 24 h, 75 μg/mL [1] [%]	cytotoxicity at 24 h, 25 μg/mL [2] [%]	cytotoxicity at 24 h, 50 μg/mL [2] [%]	cytotoxicity at 24 h, 75 μg/mL [2] [%]	cytotoxicity at 24 h, 100 μg/mL [2] [%]	cytotoxicity at 24 h, 25 μg/mL [3] [%]	cytotoxicity at 24 h, 50 μg/mL [3] [%]	cytotoxicity at 24 h, 75 μg/mL [3] [%]	cytotoxicity at 24 h, 100 μg/mL [3] [%]	cytotoxicity at 24 h, 25 μg/mL ([4]; FL) [%]	cytotoxicity at 24 h, 50 μg/mL ([4]; FL) [%]	cytotoxicity at 24 h, 75 μg/mL ([4]; FL) [%]	also measured
hyperchromic activity	250 (≈ 589 µM)	500 (≈ 1180 µM)	1000 (≈ 2360 µM)	1000 (≈ 2360 µM)	500 (≈ 1180 µM)	Cc1cccc(-c2cc(-c3ccncc3)nc(N[C@@H]3O[C@H](CO)[C@@H](O)[C@H](O)[C@H]3O)n2)c1 [Compound 6, N-[4-(3-methylphenyl)-6-pyridin-4-ylpyrimidin-2-yl]-β-D-glucopyranosylamine]	7.22	12.5	31.8	27	32	48.1	72.8	10	15.4	35.9	41.1	19.1	27.6	50.9	cytotoxicity at 24 h, 100 μg/mL ([4]; FL): 63.4%; cytotoxicity at 24 h, 100 μg/mL [4, 7]: 41.9%
hyperchromic activity	250 (≈ 589 µM)	250 (≈ 589 µM)	> 1000	250 (≈ 589 µM)	250 (≈ 589 µM)	Cc1cccc(-c2cc(-c3ccccn3)nc(N[C@@H]3O[C@H](CO)[C@@H](O)[C@H](O)[C@H]3O)n2)c1 [Compound 4, N-[4-(3-methylphenyl)-6-pyridin-2-ylpyrimidin-2-yl]-β-D-glucopyranosylamine]	11.6	22.5	30	26	33.2	61.7	72.5	19.6	28.9	42	64.8	24.4	32.4	48.3	cytotoxicity at 24 h, 100 μg/mL ([4]; FL): 69.5%; cytotoxicity at 24 h, 100 μg/mL [4, 7]: 40.2%
